Values after ≈ are worked out from the molar mass of the structure shown. Read-outs that look alike come from different tables or passages of the source.
Columns and labels:
[1] = Stability against human liver microsomes; assay type: in vitro ADME; conditions: 2 μM compound
Description: (§1) Determination of Stability Against Mouse and Human Mirosomes
(§2) Pooled human liver microsomes (Cat. 452161; Lot. 23418) were purchased from Corning and pooled male mouse liver microsomes (Cat. M1000; Lot. 1210302) were purchased from Xenotech. Microsomes were stored at −80° C. prior to use. 40 μL of ultra-pure H2O was used instead of NADPH solution in the negative control. The negative control was used to exclude the misleading factor that was resulted from instability of chemical itself. Samples with NADPH were prepared in duplicate. Negative controls were prepared in singlet.
(§3) The reaction was started with the addition of 4 μL of 200 μM compound solution to each master solution to get the final concentration of 2 μM. Verapamil was used as positive control in the assay. Aliquots of 50 μL were taken from the reaction solution at 0, 15, 30, 45 and 60 min. The reaction was stopped by addition of 4 volumes of cold acetonitrile with IS (200 nM imipramine, 200 nM labetalol and 2 μM ketoprofen). Samples were centrifuged at 3,220 g for 40 minutes. Aliquot of […] of the supernatant was mixed with 90 μL of ultra-pure H2O and then was used for LC-MS/MS analysis. Results are shown in Table 3 by indicating remaining % of the test compound after 60 minutes incubation with liver microsomes from human and mouse in the presence of NADPH.

[2] = Stability against mouse liver microsomes; assay type: in vitro ADME; conditions: for Liver microsome stability remaining % after 60 min incubation with NADPH, mouse LM: 2 μM compound
Description: as §1, §2, §3

[3] = Solubility in pH4.0 and pH7.4 phosphate buffer solution; assay type: physicochemical; conditions: phosphate buffer (PBS), aqueous buffer, kinetic from dmso stock, 2 hr incubation, 25° C.
Description: 1) Preparation of Stock Solutions
Diclofenac was used as positive control in the assay.
2) Procedures for Solubility Determination
This study was performed in duplicate. […] The filtered samples were diluted with methanol.
3) Samples Analyzed by LC-MS/MS

HT29 = assay: Anti-proliferative activity, CellTiterGlo assay, HT29; assay type: cell-based; conditions: Homo sapiens, HT-29; HT29, 96 hrs incubation; read-out: Antiproliferative activities IC50, HT29
Description: (§4) The anti-proliferative activities of the compounds against 6 human cancer cell lines were determined by CellTiterGlo assay kit. All cells were obtained from ATCC and cultured as recommended by the vendor. Cells were assayed in exponential growth phase. Sample solution was prepared by 3-fold serial dilution from 30 mM stock for 10 doses in DMSO. Antiproliferative activities were measured by CellTiterGlo assay kit according to the protocol after cells were incubated for 96 hrs in a 37° C., 5% CO2 incubator.
(§5) On the 4th day of incubation, i) 15 μl reagent (CelltiterGlo assay kit) was added per well and plate was shaken (avoiding light) for 2 mins on a plate shaker, ii) the plate was kept (avoiding light) in room temperature for 30 min, and iii) the luminescence value was recorded by Multiplate reader.

MDA-MB-231 = assay: Anti-proliferative activity, CellTiterGlo assay, MDA-MB-231; assay type: cell-based; conditions: Homo sapiens; MDA-MB-231, 96 hrs incubation; read-out: Antiproliferative activities IC50, MDA-MB-231
Description: as §4, §5

A549 = assay: Anti-proliferative activity, CellTiterGlo assay, A549; assay type: cell-based; conditions: Homo sapiens; A549, 96 hrs incubation; read-out: Antiproliferative activities IC50, A549
Description: as §4, §5

U87-MG = assay: Anti-proliferative activity, CellTiterGlo assay, U87-MG; assay type: cell-based; conditions: Homo sapiens, U-87 MG, 96 hrs incubation, read-out: Antiproliferative activities IC50, U87-MG
Description: as §4, §5

LNCaP = assay: Anti-proliferative activity, CellTiterGlo assay, LNCaP; assay type: cell-based; conditions: Homo sapiens, 96 hrs incubation, read-out: Antiproliferative activities IC50, LNCaP
Description: as §4, §5

BxPC-3 = assay: Anti-proliferative activity, CellTiterGlo assay, BxPC-3; assay type: cell-based; conditions: Homo sapiens; BxPC-3, 96 hrs incubation; read-out: Antiproliferative activities IC50, BxPC-3
Description: as §4, §5

[4] = pH 4.0 phosphate buffer solution, read-out: Solubility, pH 4.0 PBS
[5] = pH 7.4 phosphate buffer solution, read-out: Solubility, pH 7.4 PBS

SMILES	Liver microsome stability remaining % after 60 min incubation with NADPH, human LM [1]	Liver microsome stability remaining % after 60 min incubation with NADPH, mouse LM [2]	other results
COc1c(Cl)c(C)c(/C=N/O)c(O)c1C/C=C(C)/C=C/[C@@]1(C)[C@H](C)CC/C(=N\O)[C@@H]1C [Compound 3, 4-chloro-2-[(2E,4E)-5-[(1R,2R,3E,6R)-3-(hydroxyimino)-1,2,6-trimethylcyclohexyl]-3-methylpenta-2,4-dien-1-yl]-6-[(1E)-(hydroxyimino)methyl]-3-methoxy-5-methylphenol]	74%	58%	–
CO/N=C/c1c(C)c(Cl)c(OC)c(C/C=C(C)/C=C/[C@@]2(C)[C@H](C)CC/C(=N\OC)[C@@H]2C)c1O [Compound 8, 4-chloro-3-methoxy-2-[(2E,4E)-5-[(1R,2R,3E,6R)-3-(methoxyimino)-1,2,6-trimethylcyclohexyl]-3-methylpenta-2,4-dien-1-yl]-6-[(1E)-(methoxyimino)methyl]-5-methylphenol]	100%	89%	–
CO/N=C/c1c(C)c(Cl)c(OC)c(C/C=C(C)/C=C/[C@@]2(C)[C@H](C)CC/C(=N\O)[C@@H]2C)c1O [Compound 10, 4-chloro-2-[(2E,4E)-5-[(1R,2R,3E,6R)-3-(hydroxyimino)-1,2,6-trimethylcyclohexyl]-3-methylpenta-2,4-dien-1-yl]-3-methoxy-6-[(1E)-(methoxyimino)methyl]-5-methylphenol]	83%	63%	–
CO/N=C/c1c(C)c(Cl)c(OC)c(C/C=C(C)/C=C/[C@@]2(C)[C@H](C)CCC(C)(O)[C@@H]2C)c1O (stereo partly drawn) [Compound 14, (E)-3-chloro-6-hydroxy-5-((2E,4E)-5-((1R,2R,6R)-3-hydroxy-1,2,3,6-tetramethylcyclohexyl)-3-methylpenta-2,4-dien-1-yl)-4-methoxy-2-methylbenzaldehyde O-methyl oxime]	99%	88%	–
CO/N=C/c1c(C)c(Cl)c(OCF)c(C/C=C(C)/C=C/[C@@]2(C)[C@H](C)CC/C(=N\OC)[C@@H]2C)c1O [Compound 9, 4-chloro-3-(fluoromethoxy)-2-[(2E,4E)-5-[(1R,2R,3E,6R)-3-(methoxyimino)-1,2,6-trimethylcyclohexyl]-3-methylpenta-2,4-dien-1-yl]-6-[(1E)-(methoxyimino)methyl]-5-methylphenol]	100%	83%	–
CO/N=C/c1c(C)c(Cl)c(OCF)c(C/C=C(C)/C=C/[C@@]2(C)[C@H](C)CC/C(=N\O)[C@@H]2C)c1O [Compound 11, 4-chloro-3-(fluoromethoxy)-2-[(2E,4E)-5-[(1R,2R,3E,6R)-3-(hydroxyimino)-1,2,6-trimethylcyclohexyl]-3-methylpenta-2,4-dien-1-yl]-6-[(1E)-(methoxyimino)methyl]-5-methylphenol]	81%	56%	–
CC(/C=C/[C@@]1(C)[C@H](C)CC/C(=N\OCC(=O)O)[C@@H]1C)=C\Cc1c(O)c(C=O)c(C)c(Cl)c1OCF [Compound 26, 2-([[(1E,2R,3R,4R)-3-[(1E,3E)-5-[3-chloro-2-(fluoromethoxy)-5-formyl-6-hydroxy-4-methylphenyl]-3-methylpenta-1,3-dien-1-yl]-2,3,4-trimethylcyclohexylidene]amino]oxy)acetic Acid]	–	–	solubility at 2 h [3, 4]: 192 µM (≈ 97.9 µg/mL); solubility at 2 h [3, 5]: 12.3 µM (≈ 6.27 µg/mL)
COc1c(Cl)c(C)c(C=O)c(O)c1C/C=C(C)/C=C/[C@@]1(C)[C@H](C)CCC(=O)[C@@H]1C [MAC, 3-chloro-6-hydroxy-4-methoxy-2-methyl-5-[(2E,4E)-3-methyl-5-[(1R,2R,6R)-1,2,6-trimethyl-3-oxocyclohexyl]penta-2,4-dien-1-yl]benzaldehyde, reference compound]	2%	6%	metabolic stability: % remained after 1 hr incubation ([2]; liver microsomes of human and mouse in the presence of NADPH, 1 hr): 6%; solubility at 2 h [3, 4]: < 0.08 µM; solubility at 2 h [3, 5]: 0.07 µM (≈ 0.0293 µg/mL)
CC(/C=C/[C@@]1(C)[C@H](C)CC/C(=N\OCCN2CCOCC2)[C@@H]1C)=C\Cc1c(O)c(C=O)c(C)c(Cl)c1OCF [Compound 12, 3-chloro-4-(fluoromethoxy)-6-hydroxy-2-methyl-5-[(2E,4E)-3-methyl-5-[(1R,2R,3E,6R)-1,2,6-trimethyl-3-[[2-(morpholin-4-yl)ethoxy]imino]cyclohexyl]penta-2,4-dien-1-yl]benzaldehyde]	–	–	IC50 (HT29): 2800 nM; IC50 (MDA-MB-231): 5800 nM; IC50 (A549): 2900 nM; IC50 (U87-MG): 3600 nM; IC50 (LNCaP): 900 nM; IC50 (BxPC-3): 2300 nM

The next lines start with results.

Liver microsome stability remaining % after 60 min incubation with NADPH, human LM [1]	Liver microsome stability remaining % after 60 min incubation with NADPH, mouse LM [2]	SMILES	other results
86%	59%	CCOC(=O)CO/N=C1\CC[C@@H](C)[C@](C)(/C=C/C(C)=C/Cc2c(O)c(/C=N/OC)c(C)c(Cl)c2OC)[C@H]1C [Compound 18, ethyl 2-([[(1E,2R,3R,4R)-3-[(1E,3E)-5-[3-chloro-6-hydroxy-2-methoxy-5-[(1E)-(methoxyimino)methyl]-4-methylphenyl]-3-methylpenta-1,3-dien-1-yl]-2,3,4-trimethylcyclohexylidene]amino]oxy)acetate]	–
74%	98%	CO/N=C/c1c(C)c(Cl)c(OC)c(C/C=C(C)/C=C/[C@@]2(C)[C@H](C)CCC(NC3CC3)[C@@H]2C)c1O (stereo partly drawn) [Compound 23, 4-chloro-2-[(2E,4E)-5-[(1R,2R,6R)-3-(cyclopropylamino)-1,2,6-trimethylcyclohexyl]-3-methylpenta-2,4-dien-1-yl]-3-methoxy-6-[(1E)-(methoxyimino)methyl]-5-methylphenol]	–
99%	97%	CC(/C=C/[C@@]1(C)[C@H](C)CC/C(=N\OCC(=O)O)[C@@H]1C)=C\Cc1c(O)c(/C=N/O)c(C)c(Cl)c1OCF [Compound 27, 2-([[(1E,2R,3R,4R)-3-[(1E,3E)-5-[3-chloro-2-(fluoromethoxy)-6-hydroxy-5-[(1E)-(hydroxyimino)methyl]-4-methylphenyl]-3-methylpenta-1,3-dien-1-yl]-2,3,4-trimethylcyclohexylidene]amino]oxy)acetic Acid]	solubility at 2 h [3, 4]: 165 µM (≈ 86.6 µg/mL); solubility at 2 h [3, 5]: 315 µM (≈ 165 µg/mL)
66%	39%	CO/N=C/c1c(C)c(Cl)c(OC)c(C/C=C(C)/C=C/[C@@]2(C)[C@H](C)CCC(NC3COC3)[C@@H]2C)c1O (stereo partly drawn) [Compound 25, 4-chloro-3-methoxy-6-[(1E)-(methoxyimino)methyl]-5-methyl-2-[(2E,4E)-3-methyl-5-[(1R,2R,6R)-1,2,6-trimethyl-3-[(oxetan-3-yl)amino]cyclohexyl]penta-2,4-dien-1-yl]phenol]	–
56%	76%	CO/N=C/c1c(C)c(Cl)c(OC)c(C/C=C(C)/C=C/[C@@]2(C)[C@H](C)CC/C(=N\OCCN3CCOCC3)[C@@H]2C)c1O [Compound 16, 4-chloro-3-methoxy-6-[(1E)-(methoxyimino)methyl]-5-methyl-2-[(2E,4E)-3-methyl-5-[(1R,2R,3E,6R)-1,2,6-trimethyl-3-[[2-(morpholin-4-yl)ethoxy]imino]cyclohexyl]penta-2,4-dien-1-yl]phenol]	–

— patent US10968186B2, “Ascochlorin derivative and use thereof as AMPK activator” (priority 2016, dated 2021)
